Measurements taken from patent US9387219B2, “Edible composition” (Conopco, Inc., priority 2011, dated 2016).
Several values for one entry are separate records, joined by “and”; a condition that tells them apart may be missing. Equal values may be shown once.

Tests used:
[1] = molecular target: T1, Human Lactase Phloridzin Hydrolase (hLPH) (Homo sapiens, UniProt P09848); assay: hLPH enzyme assay (glucoside hydrolysis by LPH extract from Caco-2 cells); format: in vitro ADME; settings: for μM substrate hydrolysed/hr / Resistance to hydrolysis-% Q4G: glucoside 1.0 mM, 1 hour at 37° C.; for μM substrate hydrolysed/hr: 10% LPH extract (Caco2 cell-line), pH 6.0; for Resistance to hydrolysis-% Q4G: relative to Q4G, 10% LPH extract
T1 construct: endogenous in cells; host or cells: Caco-2 cells held at confluence for 21 days; trans-membrane protein extract passed through a G-25 Sephadex spin column
T1 sequence (P09848 869-1927): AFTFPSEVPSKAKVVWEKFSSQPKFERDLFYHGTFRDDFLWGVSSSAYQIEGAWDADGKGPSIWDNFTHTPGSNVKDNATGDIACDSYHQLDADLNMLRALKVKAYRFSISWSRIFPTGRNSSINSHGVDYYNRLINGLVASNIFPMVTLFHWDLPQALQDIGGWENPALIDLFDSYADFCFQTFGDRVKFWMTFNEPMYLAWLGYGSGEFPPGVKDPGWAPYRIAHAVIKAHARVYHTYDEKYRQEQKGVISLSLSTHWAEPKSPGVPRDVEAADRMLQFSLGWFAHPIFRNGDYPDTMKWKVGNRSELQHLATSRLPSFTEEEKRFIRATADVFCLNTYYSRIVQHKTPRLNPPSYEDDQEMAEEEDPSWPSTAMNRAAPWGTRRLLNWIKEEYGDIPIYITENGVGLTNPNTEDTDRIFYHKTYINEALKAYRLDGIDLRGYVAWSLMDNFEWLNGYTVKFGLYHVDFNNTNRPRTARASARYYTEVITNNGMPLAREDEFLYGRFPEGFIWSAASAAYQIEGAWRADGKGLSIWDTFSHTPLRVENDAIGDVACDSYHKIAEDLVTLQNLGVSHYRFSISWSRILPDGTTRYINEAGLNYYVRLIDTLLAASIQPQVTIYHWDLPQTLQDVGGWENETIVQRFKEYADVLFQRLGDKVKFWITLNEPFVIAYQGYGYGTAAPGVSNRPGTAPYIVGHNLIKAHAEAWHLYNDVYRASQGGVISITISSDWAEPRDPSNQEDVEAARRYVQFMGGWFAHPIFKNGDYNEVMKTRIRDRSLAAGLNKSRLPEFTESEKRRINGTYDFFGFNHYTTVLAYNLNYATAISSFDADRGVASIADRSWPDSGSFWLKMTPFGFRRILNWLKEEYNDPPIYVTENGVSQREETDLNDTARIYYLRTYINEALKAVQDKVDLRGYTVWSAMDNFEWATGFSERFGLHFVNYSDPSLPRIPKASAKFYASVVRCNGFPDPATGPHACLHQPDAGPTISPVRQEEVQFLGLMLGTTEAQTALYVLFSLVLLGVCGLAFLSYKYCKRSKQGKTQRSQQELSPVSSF
Procedure: Extracts were stored at −80° C. in 50 ul aliquots. Prior to use extracts were semi-purified, removing low molecular weight interfering components by passing through a small G-25 Sephadex 50-100 μl spin-column (Roche or ThermoFisher Scientific). 10 μl of semi-purified LPH extract was added to 90 μl of glucoside (1.0 mM final concentration) in 0.1 M maleate (Sigma) buffer, pH 6.0 and incubated for 60 minutes at 37° C. The reaction was terminated by addition of 200 μl 2M Tris (Sigma), pH 8.0. […] This allowed a full recovery of glucose which was measured using the Amplex® Red Glucose/Glucose Oxidase Assay. […] Fluorescence was read on a SpectraMax Gemini EM SN plate reader (Molecular Devices) (excitation. 530 nm and emission at 590 nm).

GLUT2 = molecular target: T2, GLUT2 (Homo sapiens, UniProt P11168); assay: Glucose transport inhibitor cell screening assay, 25 mM D-glucose for 30 minutes (GLUT2 inhibition); format: cell-based; settings: for GLUT2 inhibitory activity (in words): Caco-2 cell model
T2 construct: endogenous in cells; host or cells: differentiated Caco-2 cell monolayers (ATCC)
T2 sequence (P11168 1-524): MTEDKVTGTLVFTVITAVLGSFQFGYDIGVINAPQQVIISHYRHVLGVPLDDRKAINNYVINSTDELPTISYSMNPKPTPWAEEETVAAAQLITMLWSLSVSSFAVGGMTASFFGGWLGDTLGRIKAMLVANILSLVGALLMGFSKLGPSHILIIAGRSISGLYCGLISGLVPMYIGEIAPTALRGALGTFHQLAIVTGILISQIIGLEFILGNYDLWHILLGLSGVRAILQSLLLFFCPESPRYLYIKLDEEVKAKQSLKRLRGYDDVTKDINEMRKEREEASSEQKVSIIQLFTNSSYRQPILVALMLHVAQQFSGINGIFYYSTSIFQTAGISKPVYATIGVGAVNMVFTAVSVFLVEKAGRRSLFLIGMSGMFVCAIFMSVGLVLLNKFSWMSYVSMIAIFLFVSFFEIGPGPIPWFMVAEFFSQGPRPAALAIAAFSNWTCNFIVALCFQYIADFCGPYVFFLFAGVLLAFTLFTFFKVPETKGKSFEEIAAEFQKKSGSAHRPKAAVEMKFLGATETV
Procedure: (§1) Human epithelial colorectal adenocarcinoma (Caco-2) cells were obtained from the American Type Culture Collection (ATCC) and cultured in Growth Medium consisting of Dulbecco's modified Eagle's medium (containing Glutamax-1, 4.5 g/L D-glucose and 25 mM 4-(2-hydroxyethyl)-1-piperazine ethanesulphonic acid (Hepes) (Invitrogen)), 10% foetal bovine serum (Sigma), 1% non-essential amino acids (Invitrogen) and 1 mM sodium pyruvate (Sigma)). The cells were routinely passaged at approximately 80% confluence using TrypLE™ Express Stable Trypsin-Like Enzyme (Invitrogen) to detach the cells, and seeded at approximately 114 cells per mm^2 in fresh tissue culture flasks. Only cells between the passage numbers 45 and 49 were used for experiments.
(§2) Corning® HTS Transwell® 96 well permeable insert supports (Sigma) were collagen coated with 40 μl of 50 μg/ml rat tail collagen type I (BD Biosciences) in 0.02 M acetic acid for one hour at room temperature under sterile conditions. The inserts were washed twice in phosphate buffered saline (PBS (Invitrogen)) and the Caco-2 cells seeded into the inserts at 9.6×10^5 cell/ml (75 μl per insert) in Growth Medium and 30 ml of Growth Medium added to the feeder plate below. The cells were left to attach to the collagen matrix and form monolayers over 48 hours at 37° C., 5% CO2. Both inserts and feeder plate were washed in PBS and the cells incubated with BD Entero-STIM™ Enterocyte Differentiation Medium containing MITO+™ Serum Extender solution (both BD Biosciences), 75 μl per insert and 30 ml in the feeder plate, for a further 48 hours at 37° C., 5% CO2.
(§3) Differentiated cell monolayers were washed gently in Dulbecco's Phosphate Buffered Saline containing CaCl2 and MgCl2 (PBS(+) (Invitrogen)) and the inserts transferred to a new Corning® HTS Transwell®-96 well receiver plate (Sigma). The cells were incubated with fresh PBS(+) (75 μl per insert and 225 μl per well) for 60 minutes at 37° C., 5% CO2. The PBS(+) was gently aspirated and replaced with 75 μl per insert of either 5 mM D-glucose (Sigma)±test active or 25 mM D-glucose±test active in triplicate and 225 μl per well of PBS(+) quickly added to each well. The 5 mM glucose wells and the 25 mM glucose wells were incubated at 37° C., 5% CO2 for 15 minutes and 30 minutes, respectively. Details of all the actives tested are found in table 1. The cell inserts were transferred to a new receiver plate, the supernatant gently aspirated from the cells and replaced with 100 μl of 100 μM of Lucifer Yellow (Sigma) solution to confirm the integrity of the monolayers. 225 μl of PBS(+) was added to each well and incubated at 37° C., 5% CO2 for 1 hour. The cell inserts were then discarded and the permeability of the membranes to Lucifer Yellow checked by measuring the fluorescence of the samples at 485 nm (excitation) and 530 nm (emission) on a Spectramax Gemini EM fluorescence microplate reader.
(§4) The amount of glucose transported across the cell monolayers was measured using a glucose assay based on Invitrogen's Amplex Red Glucose/Glucose oxidase Assay Kit. Briefly, 50 μl of each test sample was transferred to a black sided/clear bottom 96-well plate (Greiner Bio-One) to which 100 μl of reaction buffer (0.5 μl 10 mM Ampliflu Red, 1 μl 10 U/ml Horse Radish peroxidase, 1 μl 100 U/ml glucose oxidase and 97.5 μl PBS (all Sigma)) was added. After 10 minutes incubation at room temperature, the fluorescence of the samples were measured at 530 nm (excitation) and 590 nm (emission) on a Spectramax Gemini EM fluorescence microplate reader and the glucose concentration extrapolated from a standard curve.
(§5) At higher D-glucose concentrations, the SGLT1 transporter becomes saturated and consequently the majority of glucose transport across the monolayer is driven by the low affinity, high capacity GLUT2 transporter that is targeted to the apical membrane only following an initial SGLT1-dependent transport of glucose.

SGLT1 = molecular target: T3, SGLT1 (Homo sapiens, UniProt P13866); assay: Glucose transport inhibitor cell screening assay, 5 mM D-glucose for 15 minutes (SGLT1 inhibition); format: cell-based; settings: for SGLT1 inhibitory activity (in words): Caco-2 cell model; for Class (assigned class of transporter inhibited): assigned from % inhibition at 5 mM and 25 mM D-glucose in Caco-2 cells
T3 construct: endogenous in cells; host or cells: differentiated Caco-2 cell monolayers (ATCC)
T3 sequence (P13866 1-664): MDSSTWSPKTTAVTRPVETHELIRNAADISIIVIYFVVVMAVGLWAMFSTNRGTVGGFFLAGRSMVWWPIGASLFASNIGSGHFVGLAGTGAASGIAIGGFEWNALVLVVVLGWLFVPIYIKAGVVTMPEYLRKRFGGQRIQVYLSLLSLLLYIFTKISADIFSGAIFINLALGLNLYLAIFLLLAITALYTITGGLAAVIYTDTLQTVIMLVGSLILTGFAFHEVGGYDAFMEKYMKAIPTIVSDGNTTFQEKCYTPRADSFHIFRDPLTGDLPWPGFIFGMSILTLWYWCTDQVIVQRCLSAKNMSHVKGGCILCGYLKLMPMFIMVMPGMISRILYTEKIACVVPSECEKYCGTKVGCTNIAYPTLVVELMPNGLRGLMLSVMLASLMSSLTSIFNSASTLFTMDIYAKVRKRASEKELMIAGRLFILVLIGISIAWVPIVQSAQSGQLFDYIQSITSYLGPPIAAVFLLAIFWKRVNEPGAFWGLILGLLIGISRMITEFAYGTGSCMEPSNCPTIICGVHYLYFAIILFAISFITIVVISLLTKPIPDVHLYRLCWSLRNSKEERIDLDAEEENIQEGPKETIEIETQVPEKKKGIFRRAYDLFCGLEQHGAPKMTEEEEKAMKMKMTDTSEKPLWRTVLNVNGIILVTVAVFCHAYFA
Procedure: as §1, §2, §3, §4, §5

[2] = differentiated Caco-2 monolayer, 30 minutes, active at 150 uM
[3] = differentiated Caco-2 monolayer, 5 mM D-glucose, 15 minutes, active at 300 uM

| Compound | μM substrate hydrolysed/hr [1] | Resistance to hydrolysis-% Q4G [1] [%] | % Glucose Transport inhibition 25 mM (GLUT2; [2]) [%] | SGLT1 inhibitory activity (in words) (SGLT1; 5 mM D-glucose) | Class (assigned class of transporter inhibited) (SGLT1) | also measured |
| --- | --- | --- | --- | --- | --- | --- |
| O=c1cc(-c2ccc(O)cc2)oc2c([C@@H]3O[C@H](CO)[C@@H](O)[C@H](O)[C@H]3O)c(O)cc(O)c12 [Apigenin-8-C-glucoside] | 0.685 μM substrate hydrolysed/hr | 77.90 | 5.76 | inhibition of SGLT1 | SGLT1 | % Glucose Transport inhibition 5 mM (SGLT1; [3]): 33.84% |
| O=c1c(O[C@@H]2O[C@H](CO)[C@@H](O)[C@H](O)[C@H]2O)c(-c2ccc(O)cc2)oc2cc(O)cc(O)c12 [Kaempferol 3-O-glucoside] | 0.224 μM substrate hydrolysed/hr | – | – | inhibition of SGLT1 | SGLT1 | Resistance to hydrolysis-% Q4G ([1]; listed as K3G): 92.8% and 92.78% |
| O=c1c(O)c(-c2ccc(O)cc2)oc2cc(O[C@@H]3O[C@H](CO)[C@@H](O)[C@H](O)[C@H]3O)cc(O)c12 [Kaempferol 7-O-glucoside] | 0.618 μM substrate hydrolysed/hr | 80.05 | 14.42 | inhibition of SGLT1 | SGLT1 | % Glucose Transport inhibition 5 mM (SGLT1; [3]): 43.89% |
| O=c1cc(-c2ccc(O)c(O)c2)oc2cc(O[C@@H]3O[C@H](CO)[C@@H](O)[C@H](O)[C@H]3O)cc(O)c12 [Luteolin-7-glucoside] | 0.814 μM substrate hydrolysed/hr | 73.72 | 17.03 | inhibition of SGLT1 | SGLT1 | % Glucose Transport inhibition 5 mM (SGLT1; [3]): 44.09% |
| O=C1CC(c2ccc(O)cc2)Oc2cc(O[C@@H]3O[C@H](CO)[C@@H](O)[C@H](O)[C@H]3O)cc(O)c21 (stereo partly drawn) [Naringenin-7-O-glucoside] | 1.564 μM substrate hydrolysed/hr | – | 0.06 | inhibition of SGLT1 | SGLT1 | Resistance to hydrolysis-% Q4G ([1]; listed as N7G): 49.5% and 49.52% |
| OC[C@H]1O[C@@H](Oc2cc3c(O)cc(O)cc3[o+]c2-c2ccc(O)cc2)[C@H](O)[C@@H](O)[C@@H]1O [Pelargonidin-3-glucoside] | 1.272 μM substrate hydrolysed/hr | 58.94 | – | inhibition of SGLT1 | SGLT1 | – |
| O=C(CCc1ccc(O)cc1)c1c(O)cc(O)cc1O[C@@H]1O[C@H](CO)[C@@H](O)[C@H](O)[C@H]1O [Phloridzin, reference compound] | 0.507 μM substrate hydrolysed/hr | 83.64 | – | – | – | – |
| O=c1c(O[C@@H]2O[C@H](CO)[C@@H](O)[C@H](O)[C@H]2O)c(-c2ccc(O)c(O)c2)oc2cc(O)cc(O)c12 [Quercetin-3-glucoside] | 0.178 μM substrate hydrolysed/hr | – | – | inhibition of SGLT1 | SGLT1 | – |
| O=c1c(O)c(-c2ccc(O[C@@H]3O[C@H](CO)[C@@H](O)[C@H](O)[C@H]3O)c(O)c2)oc2cc(O)cc(O)c12 [Quercetin-4-glucoside, reference compound] | – | – | – | inhibition of SGLT1 | SGLT1 | degradation by hLPH (in words) ([1]; Caco-2): highest degree of degradation by hLPH |
| O=c1c(O)c(-c2ccc(O)c(O)c2)oc2cc(O)cc(O)c12 [Quercetin] | – | – | – | – | GLUT2 (GLUT2 inhibitors having ≧20% inhibition at both 5 mM and 25 mM D-glucose levels) | inhibition at 150 µM (GLUT2; [2]): 61.4%; inhibition at 300 µM (SGLT1; [3]): 80.8% |
| O=C(O)/C=C/c1ccc(O)c(O)c1 [caffeic acid] | – | – | – | no inhibitory activity | – | GLUT2 inhibitory activity (in words) (GLUT2): no inhibitory activity |
| O=C(/C=C/c1ccc(O)c(O)c1)O[C@@H]1C[C@](O)(C(=O)O)C[C@@H](O)[C@H]1O [chlorogenic acid] | – | – | – | no inhibitory activity | – | GLUT2 inhibitory activity (in words) (GLUT2): no inhibitory activity |
| O=C(/C=C/c1ccc(O)c(O)c1)O[C@H](Cc1ccc(O)c(O)c1)C(=O)O [rosmarinic acid] | – | – | – | no inhibitory activity | – | GLUT2 inhibitory activity (in words) (GLUT2): no inhibitory activity |
